Data from PMC10298982, “Stability Characterization of the Novel Anti-Cancer HM-10/10 HDL-Mimetic Peptide” (International Journal of Molecular Sciences, 2023).
Read-outs that look alike come from different tables or passages of the source.

How the values were obtained:
[1] = in vitro; conditions: beagle, dog, plasma, pH 7.4
Method: (§7) The supernatant was removed and incubated at 37 °C for at least 10 min before use. The pH of each matrix was checked and adjusted to pH 7.4 using 10% phosphoric acid or 1 N sodium hydroxide as necessary.
(§8) Test and control article stock solutions were spiked (1.5 µL) into matrix (0.749 mL) to a final assay concentration of 2 µM and mixed. […] These tubes were sealed and incubated at 37 °C with shaking.
(§9) The quenched samples were mixed briefly by vortexing and stored in a −20 °C freezer.
(§10) Sample plates were stored refrigerated until analysis.
(§11) The column was set to a temperature of 55 °C. […] The instrument was equipped with an electrospray ionization source (500 °C) operated in positive-ion mode.
(§12) Peak area ratios for IS-normalized test article and control article counts were used to calculate the percent remaining relative to the time zero (T0) value. As appropriate, results were plotted and further analyzed to calculate half-life (T1/2) values.
(§13) Mean peak ratios were used to calculate the percent remaining relative to the T0 value: % Remaining at Timex = (mean peak area ratio Tx/mean peak ratio T0) × 100.

[2] = in vitro; conditions: cynomolgus monkey, plasma, pH 7.4
Method: as §7, §8, §9, §10, §11, §12, §13

[3] = in vitro; conditions: CD-1, mouse, plasma, pH 7.4
Method: as §7, §8, §9, §10, §11, §12, §13

[4] = in vitro; conditions: human, plasma, pH 7.4
Method: as §7, §8, §9, §10, §11, §12, §13

[5] = in vitro; conditions: Sprague-Dawley, rat, plasma, pH 7.4
Method: as §7, §8, §9, §10, §11, §12, §13

[6] = target: T1, CYP2D6 (Homo sapiens, UniProt P10635)
T1 sequence (P10635 whole entry): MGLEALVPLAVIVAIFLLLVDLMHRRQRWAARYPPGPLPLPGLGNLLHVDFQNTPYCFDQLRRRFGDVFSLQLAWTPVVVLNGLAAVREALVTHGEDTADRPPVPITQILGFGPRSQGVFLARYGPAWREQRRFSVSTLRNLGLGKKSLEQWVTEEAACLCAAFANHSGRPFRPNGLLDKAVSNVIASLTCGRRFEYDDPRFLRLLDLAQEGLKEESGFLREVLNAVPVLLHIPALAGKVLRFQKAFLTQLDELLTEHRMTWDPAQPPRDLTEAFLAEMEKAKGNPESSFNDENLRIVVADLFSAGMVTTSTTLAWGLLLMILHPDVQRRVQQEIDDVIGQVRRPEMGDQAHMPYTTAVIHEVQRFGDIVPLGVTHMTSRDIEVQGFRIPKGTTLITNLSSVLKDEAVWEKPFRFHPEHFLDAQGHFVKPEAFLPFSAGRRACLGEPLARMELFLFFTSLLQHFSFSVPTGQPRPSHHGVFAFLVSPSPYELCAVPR

[7] = target: T1, CYP2D6; test: in vitro; conditions: both, microsomes
[8] = target: T2, CYP2C8 (Homo sapiens, UniProt P10632); test: CYP450 time-dependent inhibition, CYP2C8, pooled human liver microsomes; conditions: Amodiaquine (2C8)
T2 sequence (P10632 1-490): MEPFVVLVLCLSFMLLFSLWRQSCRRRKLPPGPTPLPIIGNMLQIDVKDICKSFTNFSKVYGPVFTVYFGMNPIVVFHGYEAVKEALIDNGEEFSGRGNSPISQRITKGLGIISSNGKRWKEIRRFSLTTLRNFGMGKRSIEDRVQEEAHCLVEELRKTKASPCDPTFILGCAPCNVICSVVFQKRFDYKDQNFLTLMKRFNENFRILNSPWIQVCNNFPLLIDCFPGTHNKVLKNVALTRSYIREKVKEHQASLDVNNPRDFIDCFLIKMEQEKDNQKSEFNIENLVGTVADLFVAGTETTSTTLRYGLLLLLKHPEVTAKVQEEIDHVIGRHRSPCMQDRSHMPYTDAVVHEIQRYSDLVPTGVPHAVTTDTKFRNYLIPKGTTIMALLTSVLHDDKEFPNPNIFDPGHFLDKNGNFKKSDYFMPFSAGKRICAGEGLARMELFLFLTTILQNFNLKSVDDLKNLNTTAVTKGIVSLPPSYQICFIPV

[9] = Stability in potassium phosphate buffers of pH 1.3, 5.5 and 7.4; type: physicochemical; conditions: potassium phosphate buffer; for remaining at 1 h, 2 µM: read-out: % Remaining at 60 min
Method: The stability of HM-10/10 under varying pH conditions was determined by adding the compound to potassium phosphate buffers of pH 1.3 (acidic), 5.5 (slightly acidic), and 7.4 (physiological pH), with 7-Ethoxycoumarin used as a control article. Under acidic and slightly acidic conditions, the half-life of HM-10/10 could not be determined, as the percentage of HM-10/10 was higher at the end of the time course than at the beginning (Table 3, Figure 3). […] Samples were tested at 2 µM.
The instrument was equipped with an electrospray ionization source (600 °C) operated in the positive-ion mode.

[10] = target: T3, CYP2C19 (Homo sapiens, UniProt P33261); test: CYP450 time-dependent inhibition, CYP2C19, pooled human liver microsomes; conditions: Mephenytoin (2C19)
T3 sequence (P33261 whole entry): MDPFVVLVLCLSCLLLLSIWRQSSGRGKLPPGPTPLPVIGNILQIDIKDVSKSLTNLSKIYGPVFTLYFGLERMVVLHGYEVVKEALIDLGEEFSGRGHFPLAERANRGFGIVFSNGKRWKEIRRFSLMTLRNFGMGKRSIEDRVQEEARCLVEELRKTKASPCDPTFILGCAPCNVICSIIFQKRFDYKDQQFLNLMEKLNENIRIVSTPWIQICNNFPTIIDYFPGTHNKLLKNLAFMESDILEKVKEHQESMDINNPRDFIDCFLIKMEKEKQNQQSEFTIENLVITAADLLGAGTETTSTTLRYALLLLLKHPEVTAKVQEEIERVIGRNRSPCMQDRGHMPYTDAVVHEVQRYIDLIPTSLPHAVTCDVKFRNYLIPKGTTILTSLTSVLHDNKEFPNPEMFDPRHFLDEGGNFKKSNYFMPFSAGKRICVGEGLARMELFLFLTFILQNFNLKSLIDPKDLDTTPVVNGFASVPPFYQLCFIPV

[11] = target: T3, CYP2C19; test: in vitro; conditions: both, microsomes
[12] = system: CYP1A2; test: CYP1A2 induction (mRNA expression) in single-donor human hepatocytes; type: in vitro ADME; conditions: 50 µM (control)
Method: (§1) RNA isolation and quantification: E-Z 96 Total RNA Kit (Omega Bio-tek, Catalog No. R1034-02) was used for RNA isolation and Quant-iT RNA assay kit (ThermoFisher, Catalog No. Q33140) was used for RNA quantification. The plates were removed from a −80 °C freezer and equilibrated to room temperature. RNA was extracted using the manufacturer’s recommended protocol. Eighty-one microliters of 100% ethanol were added into each well containing 150 µL of lysed sample to make a final ethanol concentration at 35%.
(§2) cDNA generation: For cDNA generation, a High-Capacity cDNA Reverse Transcription Kit (Applied Biosystems, Catalog No. 4319983) and QuantStudio 3 PCR system (Applied Biosystems) were used. In this step, 2X Reverse Transcription Master Mix was prepared using the contents of the kit. Then, 10 µL of total RNA was added to 10 µL of 2X Reverse Transcription Master Mix in a microplate and the plate was sealed. This plate was then run in a thermocycler to generate cDNA.
(§3) Real time PCR: SsoAdvanced Universal SYBR® Green Supermix (BIO-RAD, Catalog No. 172-5270) and the QuantStudio 3 Real-Time PCR system (Applied Biosystems) were used to perform real-time PCR on the generated cDNA. In this step, a PCR mix was prepared using PCR Supermix, SYBR® primers for the targeted genes, and nuclease-free water. Two microliters of ten-fold diluted cDNA samples (5 µL of cDNA into 45 μL of nuclease-free water) were added to 8 µL of PCR Mix in a microplate and sealed. This plate was then run through the Real-Time PCR system to generate the mRNA expression data.
(§4) • Human GAPDH • F: […] • R: […] • Human CYP1A2 • Unique Assay ID: qHsaCID0015160 • Chromosome Location: 15:75045562-75047256 • Human CYP2B6 • F: […] • R: […] • Human CYP3A4 • F: […] • R: […]

[13] = target: T3, CYP2C19
[14] = Stability in simulated intestinal fluid (SIF); type: in vitro ADME; conditions: simulated intestinal fluid (SIF), SIF pH 5.5
Method: (§5) When developing any potentially oral-route pharmaceutical agent, the denaturing and pepsin-rich environment of the stomach must be considered. The stability of HM-10/10 was tested in simulated gastric fluid (SGF) and simulated intestinal fluid (SIF) over 120 min. […] Samples were tested at 2 μM.
(§6) For the HM-10/10 stability assay in simulated gastric and intestinal fluids, propantheline was used to confirm retention time and carbutamide was used as the internal standard for calculations.

[15] = Stability in simulated gastric fluid (SGF); type: in vitro ADME; conditions: SGF pH 1.3
Method: as §5, §6

[16] = system: CYP2B6; test: CYP2B6 induction (mRNA expression) in single-donor human hepatocytes; type: in vitro ADME; conditions: 1000 µM (control)
Method: as §1, §2, §3, §4

[17] = system: CYP2B6; test: CYP2B6 induction (enzyme activity) in single-donor human hepatocytes; conditions: 1000 µM (positive control)
Method: The transport medium was replaced with 200 μL of warm (37 °C) incubation medium (InVitroGRO HI, BioIVT Catalog No. Z99009) and the plate was placed in a humidified 5% carbon dioxide incubator at 37 °C for 24 h.
In addition, test article vehicle (PBS) was added to warm (37°C) InVitroGRO HI Medium in a 5:95 (v:v) ratio. […] The plates were removed from the incubator and the hepatocytes were prepared for the induction assay by replacing the cell culture medium with medium containing either the test article, a control inducer, or vehicle control (200 µL per well). The hepatocyte plates were returned to the cell culture incubator and incubated for 24 h.
On Day 3, induction was repeated following the same steps as described above for the previous day, and plates were returned to the cell culture incubator for an additional 24 h.
After aliquots were taken to measure test article stability, all the remaining medium from each well in the hepatocyte plate was removed, all wells were washed once using 200 μL of blank assay buffer, and then 100 μL of the 1000-fold diluted substrate solutions were added to the appropriate wells. The assay plate was returned to the humidified 5% carbon dioxide incubator at 37 °C for 1 h incubation.
At the end of the incubation time, 100 μL of mRNA lysis buffer was added to each well to stop the reaction. Fifty microliters of this reaction mixture were transferred into a new plate and quenched with 200 μL of ice-cold acetonitrile containing a CYP-specific stable labeled internal standard (250 ng/mL acetaminophen-d4, 250 ng/mL hydroxybupropion-d6, or 250 ng/mL hydroxytestosterone-d3). After removal of the aliquots from the plate for enzyme activity determination, the assay plates were sealed and stored in a −70 °C freezer until use for RT-PCR, mRNA analysis.
For the induction assay samples, an aliquot (50 µL) of the supernatant was transferred to a new plate and diluted with 100 µL Milli-Q water. For the test article stability samples, an aliquot (50 µL) of the supernatant was transferred to a new plate and diluted with 60 µL 0.1% formic acid in Milli-Q water. These samples for the enzyme activity assay and article stability test were refrigerated for storage until analysis. […]
HM1010: Induction Potential of Cytochrome P450 Enzymes
(CYP1A2, CYP2B6 and CYP3A4) Using Human Cryopreserved Hepatocytes
Testing Facility Study No.
The purpose of this in-vitro study was to determine the induction potential of HM1010 on human
cytochrome P450 (CYP) isoenzyme (1A2, 2B6 and 3A4) activity. The study design is
Matrix: Inducible cryopreserved human hepatocytes three single-donor lots
Assay Buffer: InVitroGRO KHB
Substrates: Phenacetin (1A2), Bu propion (2B6), and Testosterone (3A4)
Assay conditions: 48 hours at 37°C in humidified 5% carbon dioxide incubator
Analysis: LC-MS/MS (enzyme activity) and mRNA analysis

[18] = target: CYP2C9 (Homo sapiens, UniProt P11712)
Sequence of CYP2C9 (P11712 whole entry): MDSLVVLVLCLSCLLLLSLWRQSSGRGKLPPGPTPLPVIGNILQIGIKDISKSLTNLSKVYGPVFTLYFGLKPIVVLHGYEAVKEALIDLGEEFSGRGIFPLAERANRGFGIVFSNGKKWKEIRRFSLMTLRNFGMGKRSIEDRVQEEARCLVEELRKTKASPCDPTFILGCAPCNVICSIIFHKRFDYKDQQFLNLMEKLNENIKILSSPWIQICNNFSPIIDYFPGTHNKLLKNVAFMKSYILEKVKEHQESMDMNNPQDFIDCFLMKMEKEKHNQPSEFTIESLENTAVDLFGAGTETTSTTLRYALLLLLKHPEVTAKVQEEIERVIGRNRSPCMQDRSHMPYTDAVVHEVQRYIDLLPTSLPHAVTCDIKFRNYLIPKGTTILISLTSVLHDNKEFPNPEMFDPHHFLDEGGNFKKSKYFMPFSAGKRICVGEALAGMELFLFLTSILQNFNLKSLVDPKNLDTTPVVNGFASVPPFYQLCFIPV

[19] = pH 7.4, % Inhibition at 50 µM No PI + NADPH
[20] = pH 7.4, % Inhibition at 50 µM No PI − NADPH
[21] = pH 7.4, % Inhibition at 50 µM PI + NADPH
[22] = pH 7.4, % Inhibition at 50 µM PI − NADPH
[23] = both, human, microsomes, pH 7.4

CC[C@H](C)C(=O)O[C@H]1C[C@@H](C)C=C2C=C[C@H](C)[C@H](CC[C@@H]3C[C@@H](O)CC(=O)O3)[C@H]21 [Lovastatin, lovastatin]
half-life at 2 µM [1]: 7.42 h
remaining at 2 h, 2 µM [1]: 73.2%
half-life at 2 µM [2]: > 2 h
remaining at 2 h, 2 µM [2]: 115%
half-life at 2 µM [3]: 0.24 h
half-life at 2 µM [4]: 10.8 h
remaining at 2 h, 2 µM [4]: 81.1%
half-life at 2 µM [5]: 0.138 h

Fc1ccc([C@@H]2CCNC[C@H]2COc2ccc3c(c2)OCO3)cc1 [Paroxetine, paroxetine]
Comments (time-dependent inhibition) [6]: +TDI
inhibition at 30 min, 50 µM [7, 19]: 99%
inhibition at 30 min, 50 µM [7, 20]: 99.1%
inhibition at 30 min, 50 µM [7, 21]: 100%
inhibition at 30 min, 50 µM [7, 22]: 99%

O=c1c(O)c(-c2ccc(O)c(O)c2)oc2cc(O)cc(O)c12 [Quercetin, quercetin]
Comments (time-dependent inhibition) [8]: No TDI
% Inhibition at 50 µM No PI + NADPH ([8]; 50 µM, No PI + NADPH): 100.5%
% Inhibition at 50 µM No PI − NADPH ([8]; 50 µM, No PI − NADPH): 100.9%
% Inhibition at 50 µM PI + NADPH ([8]; 50 µM, PI + NADPH): 100.8%
% Inhibition at 50 µM PI − NADPH ([8]; 50 µM, PI − NADPH): 100.5%

CCOc1ccc2ccc(=O)oc2c1 [7-Ethoxycoumarin, reference compound]
half-life at 2 µM ([9]; Acidic (pH 1.3)): 13.5 h
remaining at 1 h, 2 µM ([9]; Acidic (pH 1.3)): 89%
half-life at 2 µM ([9]; Physiological pH (pH 7.4)): 11.8 h
remaining at 1 h, 2 µM ([9]; Physiological pH (pH 7.4)): 87.5%
half-life at 2 µM ([9]; Slightly Acidic (pH 5.5)): 16.5 h
remaining at 1 h, 2 µM ([9]; Slightly Acidic (pH 5.5)): 90%

COc1ccc2[nH]c([S+]([O-])Cc3ncc(C)c(OC)c3C)nc2c1 (stereo not shown) [Omeprazole, omeprazole]
IC50 ([10]; IC50 (µM) No PI + NADPH, No PI + NADPH): 4.77 µM
IC50 ([10]; IC50 (µM) No PI − NADPH, No PI − NADPH): 5.39 µM
inhibition at 30 min, 50 µM [11, 19]: 92.9%
inhibition at 30 min, 50 µM [11, 20]: 93.1%
inhibition at 30 min, 50 µM [11, 21]: 95.8%
inhibition at 30 min, 50 µM [11, 22]: 90.7%
Comments (mRNA induction) [12]: Induced as Expected
Comments (time-dependent inhibition) [13]: +TDI

CC(C)[N+](C)(CCOC(=O)C1c2ccccc2Oc2ccccc21)C(C)C [Propantheline, propantheline]
half-life at 2 µM [14]: 13.6 h
half-life at 2 µM [1]: 4.1 h
remaining at 2 h, 2 µM [1]: 65.7%
half-life at 2 µM [2]: 11.1 h
remaining at 2 h, 2 µM [2]: 80.3%
half-life at 2 µM [15]: 8.7 h
half-life at 2 µM [3]: 1.17 h
remaining at 2 h, 2 µM [3]: 27%
half-life at 2 µM [4]: 0.76 h
remaining at 2 h, 2 µM [4]: 13.3%
half-life at 2 µM [5]: 77.5 h
remaining at 2 h, 2 µM [5]: 95%

CCC1(c2ccccc2)C(=O)NC(=O)NC1=O [Phenobarbital, phenobarbital, reference compound]
Comments (mRNA induction) [16]: Induced as Expected
Fold Increase (mRNA Expression) Lot HH1086 [16]: 15.5 fold
Fold Increase (mRNA Expression) Lot HH1142 [16]: 22.3 fold
Fold Increase (mRNA Expression) Lot HH1144 [16]: 7.54 fold
Fold Increase (mRNA Expression) Mean of 3 Lots [16]: 15.1 fold
Fold Increase (Enzyme Activity) Lot HH1086 [17]: 11.8 fold
Fold Increase (Enzyme Activity) Lot HH1142 [17]: 21.4 fold
Fold Increase (Enzyme Activity) Lot HH1144 [17]: 7.23 fold
Fold Increase (Enzyme Activity) Mean ([17]; mean of three lots): 13.5 fold

Nc1ccc(S(=O)(=O)Nc2ccnn2-c2ccccc2)cc1 [Sulfaphenazole, sulfaphenazole]
Comments (time-dependent inhibition) [18]: No TDI
% Inhibition at 50 µM No PI + NADPH [18, 23]: 99.2%
% Inhibition at 50 µM No PI − NADPH [18, 23]: 99.1%
% Inhibition at 50 µM PI + NADPH [18, 23]: 99.7%
% Inhibition at 50 µM PI − NADPH [18, 23]: 99.9%
